From patent US9422254B2, “Methoxyacrylate-based fungicide and methods for preparing and using the same” (priority 2008, dated 2016)

Assays:
[1] = test system: Botryosphaeria berengeriana; test: microbe, parasite or virus in culture; format: cell-based; settings: read-out: Inhibition rate (%)
Alternaria alternata = test: microbe, parasite or virus in culture; format: cell-based; settings: read-out: Inhibition rate (%)

## CO/C=C(/C(=O)OC)c1ccccc1CSc1nc2cc(OC)ccc2s1 [Compound of Formula (I), (E)-methyl 3-methoxy-2-(2-((5-methoxy-benzothiazol-2-ylthio)methyl)phenyl)acrylate]
[1]; 0.3 mg/L
  inhibition at 0.3 µg/mL: 44.1%
[1]; 3 mg/L
  inhibition at 3 µg/mL: 49.6%
[1]; 30 mg/L
  inhibition at 30 µg/mL: 63.6%
Alternaria alternata; 0.3 mg/L
  inhibition at 0.3 µg/mL: 37.2%
Alternaria alternata; 3 mg/L
  inhibition at 3 µg/mL: 41.8%
Alternaria alternata; 30 mg/L
  inhibition at 30 µg/mL: 43.1%
